Results on 8 compounds are retold here after PubChem BioAssay (NCI).

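Where inhibition never reached the appropriate level, the endpoint shown equals the highest concentration tested. Otherwise, values were interpolated linearly from a five-concentration, 48-hour dose response in 96-well plates. At the TGI there is no net growth.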

Among the test systems are SW-620 colon; SF-295 CNS; A549 NSCLC; COLO 205 colon; M14 melanoma; HOP-92 NSCLC; RXF 393 renal; NCI-H460 lung; U251 CNS; HCT-15 colon; OVCAR-5 ovarian; SK-MEL-28 melanoma; MALME-3M melanoma; UACC-257 melanoma; EKVX NSCLC; IGROV1 ovarian; MDA-MB-435; DU-145 prostate; SNB-75 CNS.
What all share (assay): NCI tumour cell line growth inhibition, 48 h

As to `Cc1cc(C)n2nc3nc(N)c(C#N)c(-c4ccccc4)c3c2n1`, the TGI with SW-620 colon, in the test with SF-295 CNS, with A549 NSCLC, in the test on COLO 205 colon, in the test with M14 melanoma and with HOP-92 NSCLC was > 100 µM in each case. In addition, the TGI in the test with RXF 393 renal, in the test on NCI-H460 lung, in the test with U251 CNS, with HCT-15 colon, in the test with OVCAR-5 ovarian and with SK-MEL-28 melanoma was > 100 µM in each case. Moreover, the TGI in the test on MALME-3M melanoma, with UACC-257 melanoma, with EKVX NSCLC, in the test with IGROV1 ovarian, with MDA-MB-435 and in the test with DU-145 prostate was > 100 µM in each case.
For `O=Cc1cn(CCCCCCCCCCCCn2cc(C=O)c3ccccc32)c2ccccc12`, the TGI in the test on SW-620 colon, with SF-295 CNS, with A549 NSCLC, in the test with COLO 205 colon, in the test with M14 melanoma and in the test with HOP-92 NSCLC was > 100 µM throughout. For the same compound, the TGI in the test with RXF 393 renal, in the test with U251 CNS, with HCT-15 colon, in the test with OVCAR-5 ovarian, in the test on SK-MEL-28 melanoma and in the test on MALME-3M melanoma was > 100 µM in each case. Further, the TGI in the test with UACC-257 melanoma, in the test with EKVX NSCLC, in the test with IGROV1 ovarian, in the test with MDA-MB-435 and in the test on DU-145 prostate was > 100 µM in each case.
For the compound `CN(C(=O)C1=CCC2(CC1)OCCO2)c1ccccc1OS(=O)(=O)C(F)(F)F`, the TGI with SW-620 colon, in the test with SF-295 CNS, in the test with A549 NSCLC, with COLO 205 colon, with M14 melanoma and with HOP-92 NSCLC was > 100 µM each time. Besides, the TGI was > 100 µM in the test on RXF 393 renal; > 100 µM in the test on NCI-H460 lung; > 100 µM with U251 CNS; > 100 µM in the test on HCT-15 colon; > 100 µM in the test with OVCAR-5 ovarian; 79.5 µM in the test with SNB-75 CNS. The TGI in the test with SK-MEL-28 melanoma, in the test with UACC-257 melanoma, in the test on EKVX NSCLC, in the test with MDA-MB-435 and in the test on DU-145 prostate was > 100 µM throughout.
As to `COc1ccccc1/C(=N\OCCC(=O)O)c1cccs1`, the TGI with SW-620 colon, in the test with SF-295 CNS, with A549 NSCLC, in the test with COLO 205 colon, in the test with HOP-92 NSCLC and in the test on RXF 393 renal was > 100 µM throughout. Further, the TGI in the test with NCI-H460 lung, in the test with U251 CNS, in the test with HCT-15 colon, in the test with OVCAR-5 ovarian, in the test on SNB-75 CNS and in the test on SK-MEL-28 melanoma was > 100 µM each time. For the same compound, the TGI in the test with MALME-3M melanoma, in the test with UACC-257 melanoma, in the test with EKVX NSCLC, in the test on MDA-MB-435 and in the test with DU-145 prostate was > 100 µM in each case.
`COc1cc(C(=O)n2c3ccc(Br)cc3c3nc4ccccc4nc32)cc(OC)c1OC`: the TGI in the test on SW-620 colon is > 100 µM; in the test on SF-295 CNS it was > 100 µM; in the test with COLO 205 colon it was > 100 µM; in the test with M14 melanoma, > 100 µM; with HOP-92 NSCLC, > 100 µM; in the test on RXF 393 renal it was 66.4 µM. For the same compound, the TGI in the test with NCI-H460 lung, with U251 CNS, in the test on HCT-15 colon, in the test on OVCAR-5 ovarian, with SNB-75 CNS and with SK-MEL-28 melanoma was > 100 µM in each case. For the same compound, the TGI in the test with MALME-3M melanoma, with UACC-257 melanoma, in the test with EKVX NSCLC, in the test on IGROV1 ovarian, in the test with MDA-MB-435 and with DU-145 prostate was > 100 µM throughout.
As for `CCOC(=O)C1=C(C)N(Cc2ccc(Cl)cc2Cl)C2(O)C=CC(=O)C3C(=O)N(c4ccccc4)C(=O)C132` (stereo not given), the TGI in the test on SW-620 colon was determined as 5.97 µM; in the test on SF-295 CNS it was 11.2 µM; in the test with A549 NSCLC it was 5.74 µM; in the test with COLO 205 colon, 3.36 µM; in the test on M14 melanoma, 16 µM; in the test on HOP-92 NSCLC, 4.09 µM. For the same compound, the TGI was determined as 2.87 µM with RXF 393 renal; 5.77 µM in the test on NCI-H460 lung; 3.8 µM in the test on U251 CNS; 3.88 µM in the test on HCT-15 colon; 22.3 µM in the test with OVCAR-5 ovarian; 3.53 µM in the test on SK-MEL-28 melanoma. The TGI in the test on MALME-3M melanoma stood at 8.67 µM; in the test with UACC-257 melanoma it was 5.81 µM; in the test with EKVX NSCLC, 4.35 µM; in the test on IGROV1 ovarian it was 3.51 µM; in the test with MDA-MB-435, 7.24 µM; with DU-145 prostate, 2.97 µM.
Regarding `CC(=O)Nc1ccc(C(=O)NN2C(=O)CSC2c2ccc([N+](=O)[O-])cc2)cc1` (stereo not given), the TGI in the test on SW-620 colon, in the test with SF-295 CNS, in the test with A549 NSCLC, in the test with COLO 205 colon, in the test with M14 melanoma and with HOP-92 NSCLC was > 100 µM in each case. Besides, the TGI with RXF 393 renal, in the test with NCI-H460 lung, in the test on U251 CNS, in the test with HCT-15 colon, in the test with OVCAR-5 ovarian and in the test on SNB-75 CNS was > 100 µM each time. Further, the TGI in the test on SK-MEL-28 melanoma, in the test on UACC-257 melanoma, in the test with EKVX NSCLC, in the test on IGROV1 ovarian, in the test on MDA-MB-435 and with DU-145 prostate was > 100 µM in each case.
For `Nc1ccc(Oc2ccc(C34CC5CC6C3CC3CC4C(C5)C6(c4ccc(Oc5ccc(N)cc5)cc4)C3)cc2)cc1`, the TGI in the test with SW-620 colon is > 100 µM; in the test on SF-295 CNS, 81.4 µM; with A549 NSCLC, > 83.8 µM; in the test with M14 melanoma it was 21.4 µM; in the test with HOP-92 NSCLC, 11.7 µM; with RXF 393 renal it was 47.8 µM. Moreover, the TGI in the test on NCI-H460 lung was 61.2 µM; with U251 CNS, 14.9 µM; in the test with HCT-15 colon, > 100 µM; in the test on OVCAR-5 ovarian, > 100 µM; in the test on SK-MEL-28 melanoma, > 81.2 µM; in the test on MALME-3M melanoma, 2.81 µM. Also, the TGI in the test with UACC-257 melanoma is > 32.5 µM; in the test on EKVX NSCLC, > 77.8 µM; in the test on IGROV1 ovarian, > 78.8 µM; with MDA-MB-435, 19 µM; with DU-145 prostate, > 100 µM.
